According to patent US6616925B1, “Combined preparation for the treatment of neoplasic diseases or of infectious diseases” (I.D.M. Immuno-Designed Molecules, priority 1998, dated 2003):

Tests used:
[1] = tested on: human carcinoma solid tumors; assay: nude mice inoculated with human carcinoma solid tumors, subcutaneous tumor size; type: in vivo; details: after macrophage treatment; drugs used alone or in combination
Source text: 2) Nude mice inoculated with human carcinoma solid tumors are, initially treated with cytotoxic drugs (Adriamycin, Etretinate, Taxotere), used alone or in combination.

solid carcinoma = assay: C57B16 mice bearing solid carcinoma, apoptosis-inducing drug then monocyte derived cells; type: in vivo; details: drug intraperitonealy, after 24 h 0.1 million monocyte derived cells in tumor periphery; observed only after combined treatment
Procedure: 7) C57B16 mice bearing solid carcinoma are injected intraperitonealy with a drug inducing apoptosis (1 mg mitomycin C or 0.1 mg sodium butyrate). After 24 h, mice are injected with 0.1 million monocyte derived cells in tumor periphery. […] In another protocol, carcinoma cells are treated in vitro with 0.01 mM sodium butyrate, and then submitted to phagocytosis by murine monocyte derived cells.

## CCOC(=O)/C=C(C)/C=C/C=C(C)/C=C/c1c(C)cc(OC)c(C)c1C [Etretinate]
[1]
  antitumoral effect of second treatment with the same cytotoxic drugs (subcutaneous tumor size): further antitumoral effect

## CO[C@@]12[C@H](COC(N)=O)C3=C(C(=O)C(C)=C(N)C3=O)N1C[C@@H]1N[C@@H]12 [mitomycin C]
Solid carcinoma
  tumor outcome after combined treatment: Tumor regression and protection against further tumor challenge

## COc1cccc2c1C(=O)c1c(O)c3c(c(O)c1C2=O)C[C@@](O)(C(=O)CO)C[C@@H]3O[C@H]1C[C@H](N)[C@H](O)[C@H](C)O1 [Adriamycin]
[1]
  antitumoral effect of second treatment with the same cytotoxic drugs (subcutaneous tumor size): further antitumoral effect

## CC(=O)O[C@@]12CO[C@@H]1C[C@H](O)[C@@]1(C)C(=O)[C@H](O)C3=C(C)[C@@H](OC(=O)[C@H](O)[C@@H](NC(=O)OC(C)(C)C)c4ccccc4)C[C@@](O)([C@@H](OC(=O)c4ccccc4)[C@H]21)C3(C)C [Taxotere]
[1]
  antitumoral effect of second treatment with the same cytotoxic drugs (subcutaneous tumor size): further antitumoral effect

## CCCC(=O)[O-].[Na+] [sodium butyrate]
Solid carcinoma
  tumor outcome after combined treatment: Tumor regression and protection against further tumor challenge
